In the NIST ThermoML archive (doi:10.1016/j.jct.2012.03.025):
Numbers after ± are expanded uncertainties.

Assay: mn = molality of the nth substance listed, in mol/kg
Details: 308.15 K; 101 kPa; Liquid; Vibrating tube method; m2 = 0

SMILES | mass density
O [water] + CCCCn1cc[n+](C)c1.F[B-](F)(F)F | 994.058 ± 0.055 kg/m3
O [water] + CCCCn1cc[n+](C)c1.[Cl-] | 994.058 ± 0.044 kg/m3
O [water] + CCCCn1cc[n+](C)c1.[I-] | 994.058 ± 0.092 kg/m3
O [water] + CCCCn1cc[n+](C)c1.O=S(=O)([O-])C(F)(F)F | 994.058 ± 0.079 kg/m3
O [water] + CC(=O)[O-].CCCCn1cc[n+](C)c1 | 994.058 ± 0.11 kg/m3
O [water] + CCCCn1cc[n+](C)c1.[Br-] | 994.058 ± 0.064 kg/m3

Assay: not given
Details: 308.15 K; 101 kPa; Liquid; Vibrating tube method

SMILES | mass density
O [water] | 994.058 ± 0.044 kg/m3
